From PubChem BioAssay AID1963849 (Molecular Pharmacology Branch, DTP, NCI, 2024)
Values joined by “and” are separate entries in the source; they are usually repeats but may differ in a detail not shown here. Equal values may be shown once.

System: 299254-011-R-J1-PDC complex spheroid viability
Test: Anticancer human tumor 299254-011-R-J1-PDC patient-derived melanoma cell line growth inhibition [POLQ]
Conditions: for viability, T/C: stronger effect = lower value; for IC50: curve of compound
Description: Multicellular complex tumor spheroid response to Polymerase (POL) inhibitors (novobiocin, ART-558, RP6685) in combination with a variety of drugs and investigational agents in selected tumor cell lines
The POL inhibitors (novobiocin, ART-558, and RP6685) were evaluated both individually and in combination with standard of care and investigational anticancer small molecules within a complex spheroid model of solid tumors. . Complex spheroids include a stromal component modeled by human endothelial cells (HUVEC) and fibroblasts modeled by human mesenchymal stem cells (MSCs). The concentration ranges selected for each drug and investigational agent were based upon clinically achievable concentrations if the clinical Cmax of the agent was known.
Compounds. The drugs and investigational agents: novobiocin (NSC847541), ART-558 (NSC835418), RP-6685 (NSC848927), peposertib (NSC802822), ceralasertib (NSC780249), elimusertib (NSC800525), camonsertib (NSC841442), AZD-1390 (NSC803789), olaparib (NSC753686), talazoparib (NSC767125), rucaparib (NSC756644), sotorasib (NSC818433), MRTX-1133 (NSC836407), SN-38 (NSC673596), topotecan (NSC609699), epotoside (NSC141540), doxorubicin (NSC123127), gemcitabine (NSC613327), 5-fluorouracil (NSC19893), paclitaxel (NSC125973), vemurafenib (NSC761431), MSA-2 (NSC828583), SN-011 (NSC837082), adavosertib (NSC754352), prexasertib (NSC758257), carboplatin (NSC241240) and oxaliplatin (NSC266046), were obtained from the National Cancer Institute (NCI) Developmental Therapeutics Program Chemical Repository (21). The FDA-approved anticancer drug set is available from the Developmental Therapeutics Program at https://dtp.cancer.gov/organization/dscb/obtaining/. […] The stock solutions were prepared in dimethyl sulfoxide (DMSO, Sigma-Aldrich, St. Louis, MO, cat. D2650), except for the platinum compounds which were prepared in saline (Quality Biological, Gaithersburg, MD, cat. 114-055-101), at 800-fold the tested concentration and stored at -70 degrees C prior to their use. All drugs and investigational agents were tested over a range starting from a high concentration at or near the clinical Cmax and decreasing in half-log increments. If the clinical Cmax for an agent had not been determined, the highest concentration tested was 10 microM, except for SN-38, which was tested at a high concentration of 1 microM.
Cell Culture. All cells were maintained in an incubator at 37 degrees C and 5% CO2 with 95% humidity. The PDC lines were cultured according to standard operating procedures established by the NCI PDMR (https://pdmr.cancer.gov). Table 3 of the manuscript, lists the cell lines along with the number of the three cell types plated to form the mct-spheroids and media for tumor cell growth. After thawing, all PDC lines, except 997537-175-T-J1-PDC and 415267-285-R-J2-PDC, were cultured in Matrigel-coated flasks prepared with a working solution of 1X Ham's F-12 nutrient mix, without supplementation (Thermo Fisher Scientific, cat. 11765054), 100 U/mL penicillin-streptomycin (Thermo Fisher Scientific, cat. 15140122), and 2.5% Matrigel (Corning Inc., Corning, NY, cat. 354248) for the first three passages. The two PDC lines 997537-175-T-J1-PDC and 415267-285-R-J2-PDC were cultured on uncoated flasks. The 857933-349-R-J2-PDC line was cultured in 6C/Colon 1B media containing advanced DMEM/F-12 (Thermo Fisher Scientific, cat. 12634028), 10 mM HEPES (Thermo Fisher Scientific, cat. 15630080), 1X GlutaMAX supplement (Thermo Fisher Scientific, cat. 35050061), 0.1 mg/mL primocin (InvivoGen, San Diego, CA, cat. ant-pm-2), 10% defined fetal bovine serum, heat inactivated (HyClone Laboratories Inc., Logan, UT, cat. SH30070.03HI), 50% L-WRN conditioned media (ATCC, cat. CRL-3276), 1.25 mM N-Acetyl-L-cysteine (Sigma-Aldrich, cat. A9165), 10 mM nicotinamide (Sigma-Aldrich, cat. N0636), 1X B-27 supplement (Thermo Fisher Scientific, cat. 17504044), 1X N-2 supplement (Thermo Fisher Scientific, cat. […]
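Further: spheroids exposed to drugs for one week before measurement.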
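Wherever viability, T/C is given: percent viability relative to DMSO vehicle control taken as 100%.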

SMILES	viability, T/C (compound 0.0316 µM)	viability, T/C (compound 0.1 µM)	viability, T/C (compound 0.316 µM)	viability, T/C (compound 1 µM)	viability, T/C (compound 3.16 µM)	viability, T/C (compound 10 µM)	IC50	viability, T/C (compound 0.000316 µM)	viability, T/C (compound 0.001 µM)	viability, T/C (compound 0.00316 µM)	viability, T/C (compound 0.01 µM)
CC1COCCN1c1cc(C2(O)CC3CCC(C2)O3)c2cnn(-c3ccn[nH]3)c2n1 (centres undefined)	84.1% and 85.2% and 80.8%	66.5% and 64.7% and 57.4%	34.4% and 36.9% and 39.6%	26.3% and 17.9% and 25.1%	14.4% and 15.1% and 20.3%	8.87% and 10.7% and 12.4%	0.19 µM and 0.182 µM and 0.159 µM				
CC1COCCN1c1cc(C2(S(C)(=N)=O)CC2)nc(-c2ccnc3[nH]ccc23)n1 (centres undefined)	92.2% and 108% and 93.8%	101% and 108% and 94.5%	106% and 104% and 111%	85.5% and 84.5% and 95%	57.9% and 60.5% and 65.8%	41.8% and 43.3% and 37.2%	5.43 µM and 6.33 µM and 5.97 µM				
CCCS(=O)(=O)Nc1ccc(F)c(C(=O)c2c[nH]c3ncc(-c4ccc(Cl)cc4)cc23)c1F	114% and 106% and 96.5%	99.7% and 109% and 112%	118% and 95.7% and 123%	102% and 122% and 117%	109% and 107% and 120%	50.6% and 47.5% and 69.2%	> 10 µM and 9.54 µM				
CC[C@@]1(O)C(=O)OCc2c1cc1n(c2=O)Cc2cc3c(CN(C)C)c(O)ccc3nc2-1	107% and 108% and 94.4%	78.4% and 81.1% and 72.7%					> 0.1 µM	98.9% and 101% and 112%	94.2% and 113% and 101%	106% and 89.5% and 111%	103% (2×) and 114%
CCc1c2c(nc3ccc(O)cc13)-c1cc3c(c(=O)n1C2)COC(=O)[C@]3(O)CC	75.9% and 72.8% and 82%	67.9% and 81.2% and 60.7%	69.4% and 75.8% and 59.4%	51.7% and 59.2% and 59.4%			> 1 µM			94.6% and 92.7% and 99.2%	89.3% and 93.2% and 77.9%
CCc1cc2c(N3CCc4c(cc(Cn5ccnc5)cc4-c4cn(C)nc4C(F)(F)F)C3=O)cc(C)nc2c(OC)n1	131% and 104% and 92.7%	90.2% and 96.5% and 106%	118% and 92.2% and 99.7%	99.2% and 94.1% and 99.4%	103% and 86.5% and 90.4%	59.6% and 62.7% and 67.7%	> 10 µM				
CCc1cc2c(N3CCc4c(cc(Cn5ccnc5)cc4-c4cn(C)nc4C(F)(F)F)C3=O)ccnc2c(OC)n1	97% and 108% and 110%	105% and 116% and 102%	96.3% and 113% and 109%	93.1% and 100% and 93.5%	98% and 90.8% and 98.3%	84.2% and 82% and 82.5%	> 10 µM				
